Measured values taken from patent publication US20160369258A1, “RESTRICTING NUCLEAR PROTEIN TO SPECIFIC PHASES OF THE CELL CYCLE” (UNIVERSITY OF WASHINGTON, priority 2014, published 2016).
Peptide text beside a SMILES is read from it. * marks the point of attachment. Cbz = O=C(OCc1ccccc1)*

Tests used:
Ramos B cells = experiment: Flow cytometry of cell cycle profile and fluorescent signal; assay type: cell-based, human; details: up to 4 hr of culture; Ramos AID-mCherry transductants
Procedure: To determine cell cycle distribution, cells were fixed, permeabilized with 0.5% Triton X-100, stained with DAPI (2 μg/ml) and analyzed by FACS.

AID-mCherry = experiment: HCS microscopy of AID-mCherry subcellular distribution after LMB / MG132 treatment; assay type: cell-based, human; details: for cytoplasmic AID-mCherry signal, response to treatment / nuclear AID-mCherry signal, increase relative to untreated cells: Ramos AID-mCherry transductants, LMB 50 ng/ml, MG132 50 μM; for nuclear AID-mCherry signal, increase relative to untreated cells: 0-4 hr
Procedure: We analyzed subcellular distribution of AID in the human B cell line, Ramos, transduced with a lentiviral construct expressing human AID fused to the mCherry fluorescent protein at the C-terminus. Ramos B cells express endogenous AID and actively diversify their Ig genes, so the pathways that regulate and respond to damage by AID are intact. Cells were analyzed by high content screening (HCS) microscopy (43), a […] approach that automatically quantifies signals per unit area (pixels) in each compartment of each cell (FIG. 1A). […] The cytoplasmic signal was unaffected by MG132 treatment, but diminished upon treatment with LMB or LMB+MG132, paralleling the increase in nuclear signal.
The human Burkitt lymphoma cell line, Ramos, was cultured in supplemented RPMI 1640 (Gibco), which contained 10% FBS, 2 mM L-glutamine, penicillin/streptomycin, 1× non-essential amino acids (Gibco), 1 mM sodium pyruvate, and 10 mM HEPES. Lentiviral transductions used 2×10^5 cells cultured in medium containing 8 μg/ml of polybrene. Following transduction, cells were cultured for 3-4 days and these recent transductants then sorted for mCherry+ to enrich for transduced cells, typically constituting 0.1-10% of the population. Cells were treated with leptomycin B (LMB; LC Laboratories) at 50 ng/ml and MG132 (Z-Leu-Leu-Leu-aldehyde; Sigma-Aldrich) at 50 μM. Viable cells were counted after trypan blue staining. Cell viability was confirmed by CellTiter-Glo® Luminescent Cell Viability Assay (Promega).
Cells were fixed in 3.7% formaldehyde at a density of 2×10^6 cells/ml and stained with whole cell stain (HCS CellMask, Invitrogen) and DAPI (0.2 μg/ml). Fixed cells were then washed, resuspended in PBS and spun down in a 96-well μclear microplate (Greiner Bio One) for imaging. Cells were imaged by Thermo Scientific ArrayScan VTI HCS reader, analyzing 3000-6000 cells in each treatment group. Cells with very low or very high mCherry signals were eliminated, gating based on the mock transduction control (low) and eliminating cells with signals more than 5 SD from the mean (high). The HCS Colocalization BioApplication protocol was used to determine nuclear and whole cell boundaries in individual cells as defined by DAPI and HCS CellMask, respectively, thereby defining the cytoplasmic region as the region between nuclear and whole cell boundaries. The average signal in the nuclear and cytoplasmic compartments was determined in individual cells by measuring the total intensity of mCherry signal divided by area within each compartment. The ratio of nuclear to cytoplasmic signal (N/C) was calculated as the ratio of the average signals of nuclear and cytoplasmic mCherry.
G1, S, and G2/M phase cells were distinguished by ranking DNA content as determined by total DAPI signal, and specific fractions of the population assigned to G1, S and G2/M phases (FIG. 16A). HCS results were expressed in terms of average signal, to ensure independence of cell size, which increases during cell cycle (FIG. 16).

Row | SMILES | effect of treatment on cell cycle (Ramos B cells) | cytoplasmic AID-mCherry signal, response to treatment (AID-mCherry) | nuclear AID-mCherry signal, increase relative to untreated cells (AID-mCherry) | drop of cytoplasmic AID-mCherry signal (AID-mCherry; all stages of cell cycle (G1, S, G2/M)) | N/C ratio of AID-mCherry signal (AID-mCherry; representative cell, 0.5 hr LMB (untreated 0.80)) | effect on nuclear or cytoplasmic AID-mCherry signals (AID-mCherry; any phase of cell cycle)
1 | CCC(=C/[C@H](C)C/C=C/C(C)=C/[C@@H](C)C(=O)[C@@H](C)[C@H](O)[C@@H](C)C/C(C)=C/C(=O)O)/C=C/[C@@H]1OC(=O)C=C[C@@H]1C [LMB, leptomycin B] | not perturbed significantly | diminished | 1.5 fold | 50% | 1.34 | 
2 | CC(C)C[C@@H](C=O)NC(=O)[C@H](CC(C)C)NC(=O)[C@H](CC(C)C)NC(=O)OCc1ccccc1 [MG132, Z-Leu-Leu-Leu-aldehyde] (Cbz-Leu-Leu-Leu-aldehyde) | not perturbed significantly | unaffected | unaffected |  |  | little effect
